Reference: US20220186188A1, “Method for Obtaining Pancreatic Progenitor Cells and Pancreatic Islet Beta Cells By Means of Differentiation of Human Pluripotent Stem Cells” (Asia Regenerative Medicine, Ltd., priority 2019, published 2022)

Legend:
[1] = test system: pancreatic progenitor cells differentiated from human embryonic stem cells; test: Flow cytometry detection of PDX1 in the pancreatic progenitor cell stage (human embryonic stem cells); format: cell-based; details: 2 μM inhibitor in pancreatic progenitor cell medium, 5 days, compared with control group without WNT inhibitor
Description: a pancreatic progenitor cell medium was prepared, the medium in step 1) was replaced with the pancreatic progenitor cell medium, and the cells were cultured in a carbon dioxide incubator at 37 degrees Celsius for 5 days, during which the medium was replaced every day, wherein the composition of the pancreatic progenitor cell medium was: with an MCDB131 medium as a basic medium, and the following components at the working concentrations were further included: 0.5% of bovine serum albumin (BSA), 1.5 g/L of sodium bicarbonate, 1×glutamine (GlutaMAX), 10 mM glucose, […], 1×insulin-transferrin-selenium-ethanolamine additive (ITS-X), 50 ng/ml of fibroblast growth factor 7 (KGF), 0.5 μM SANT1 (with smo as an inhibitor target), 100 nM retinoic acid (TTNPB), 500 nM phorbol 12,13-dibutyrate (PDBu), 2 μM ALK inhibitor (K02288), and 2 μM WNT signaling pathway inhibitor XAV-939 (not added in a control group), with the concentrations all being final concentrations. […]

[2] = test system: pancreatic progenitor cells and pancreatic islet β cells differentiated from human embryonic stem cells; test: Immunofluorescence detection of PDX1 and PDX1/INS proteins (human embryonic stem cells); format: cell-based
Description: a pancreatic progenitor cell medium was prepared, the medium in step 1) was replaced with the pancreatic progenitor cell medium, and the cells were cultured in a carbon dioxide incubator at 37 degrees Celsius for 5 days, during which the medium was replaced every day, wherein the composition of the pancreatic progenitor cell medium was: with an MCDB131 medium as a basic medium, and the following components at the working concentrations were further included: 0.5% of bovine serum albumin (BSA), 1.5 g/L of sodium bicarbonate, 1×glutamine (GlutaMAX), 10 mM glucose, 0.25 M vitamin C, 1×insulin-transferrin-selenium-ethanolamine additive (ITS-X), 50 ng/ml of fibroblast growth factor 7 (KGF), 0.5 μM SANT1 (with smo as an inhibitor target), 100 nM retinoic acid (TTNPB), 500 nM phorbol 12,13-dibutyrate (PDBu), 2 μM ALK inhibitor (K02288), and 2 μM WNT signaling pathway inhibitor XAV-939 (not added in a control group), with the concentrations all being final concentrations.
b. pancreatic islet β cell medium 2 was prepared, the pancreatic islet β cell medium 1 in above-mentioned step a was replaced with the pancreatic islet β cell medium 2, and the cells were cultured in a carbon dioxide incubator at 37 degrees Celsius for 5 days, during which the medium was replaced every day, wherein the composition of the pancreatic islet β cell medium 1 was: with an MCDB131 medium as a basic medium, and the following components at the working concentrations were further included: 20 mM glucose, 2% of bovine serum albumin (BSA), 1.5 g/L of sodium bicarbonate, 1×glutamine (GlutaMAX), 0.05 mM vitamin C, 1×insulin-transferrin-selenium-ethanolamine additive (ITS-X), 2 μM ALK inhibitor (K02288), 1 μM triiodothyronine (T3), 10 μM YO-01027 (Notch signaling pathway inhibitor), and 10 μM zinc sulfate, with the concentrations all being final concentrations; and the composition of the pancreatic islet β cell medium 2 was: with an MCDB131 medium as a basic medium, and the following components at the working concentrations were further included: 20 mM glucose, 2% of bovine serum albumin (BSA), 1.5 g/L of sodium bicarbonate, 1×glutamine (GlutaMAX), 0.05 mM vitamin C, 1×insulin-transferrin-selenium-ethanolamine additive (ITS-X), 1 μM triiodothyronine (T3), 10 μM Repsox (ALK5 inhibitor), 10 μM vitamin E, 10 μg/ml of heparin sodium, 2 μM R428 (Axl inhibitor), 10 μM zinc sulfate, and 10 mM N-acetyl-L-cysteine (N-cys), with the concentrations all being final concentrations.
Cells in a culture plate were washed three times with a phosphate buffered saline (PBS), 3 minutes each time; the cells were fixed with 4% paraformaldehyde at room temperature for 20 minutes, and washed three times with PBS, 3 minutes each time; a blocking solution was prepared in advance (by adding Triton at a final concentration of 0.3% to 9 ml of DPBS, adding donkey serum at a final concentration of 10%, and uniformly mixing); the above-prepared blocking solution was used for blocking and perforation at room temperature for 2 hours; the blocking solution was soaked up, a working concentration of primary antibody prepared with the blocking solution was then added, and the product was left to stand at room temperature for 30 minutes and then placed in a refrigerator at 4° C. overnight; the next day, the product was washed three times with PBS, 3 minutes each time; a fluorescent secondary antibody of donkey serum was added and incubation was carried out at room temperature for 2 hours; in the same way, the product was washed three times with PBS, 3 minutes each time; the product was incubated with a working solution of the nuclear dye DAPI at room temperature for 10 minutes, and washed three times with PBS, 3 minutes each time; then a fluorescence microscope was used for observation and data were collected. […]

[3] = 2 μM inhibitor in pancreatic progenitor cell stage

Oc1nc(-c2ccc(C(F)(F)F)cc2)nc2c1CSCC2 [XAV-939]
PDX1-positive pancreatic progenitor cells (flow cytometry) [1]: significantly increased
number of insulin INS-positive and PDX1 co-stained pancreatic islet β cells in the mature pancreatic islet β cell stage ([2]; 2 μM inhibitor added in pancreatic progenitor cell stage, immunofluorescence): significantly increased
PDX1-positive pancreatic progenitor cells (immunofluorescence) [2, 3]: significantly increased
cell growth (total cell number by DAPI) [2, 3]: did not affect the cell growth
